Molecular target: Aβ42 (Homo sapiens, UniProt P05067)
Test: Th-T (thioflavin-T) assay of Aβ42 aggregation
Type: biochemical
Details: for Th-T fluorescence of Aβ42 with compound, mean of three wells (Fig. 7a source data): concentration 50, unit not given

Sequence of Aβ42 (P05067 672-713): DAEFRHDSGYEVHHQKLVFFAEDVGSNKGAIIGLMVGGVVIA

In the case of `C=C1CCC2C(C)(CCC=C(C)C)C(O)CCC2(C)C1Cc1c(OC)oc(CO)c(C)c1=O` (stereo not drawn) [Compound 12], the “Th-T fluorescence of Aβ42 with compound, mean of three wells (Fig. 7a source data)” value (from here on “Th-T fluorescence of Aβ42 with compound”) (time-course reading M143) is reported as 1.6964, the “Th-T fluorescence of Aβ42 with compound” value (time-course reading M144) is reported as 1.681 and the “Th-T fluorescence of Aβ42 with compound” value (time-course reading M145) is reported as 1.696. The “Th-T fluorescence of Aβ42 (sheet Fig. 7a), mean of three wells” value (head suffix _10 (concentration 10), reading M63) was 3.408, the “Th-T fluorescence of Aβ42 (sheet Fig. 7a), mean of three wells” value (head suffix _10 (concentration 10), reading M64) was 3.415 and the “Th-T fluorescence of Aβ42 (sheet Fig. 7a), mean of three wells” value (head suffix _10 (concentration 10), reading M65) was 3.397. The “Th-T fluorescence of Aβ42 (sheet Fig. 7a), mean of three wells” value (head suffix _10 (concentration 10), reading M66) was 3.3918, the “Th-T fluorescence of Aβ42 (sheet Fig. 7a), mean of three wells” value (head suffix _10 (concentration 10), reading M67) was 3.364 and the “Th-T fluorescence of Aβ42 (sheet Fig. 7a), mean of three wells” value (head suffix _10 (concentration 10), reading M68) was 3.364. For the same molecule, the “Th-T fluorescence of Aβ42 (sheet Fig. 7a), mean of three wells” value (head suffix _10 (concentration 10), reading M69) was 3.344, the “Th-T fluorescence of Aβ42 (sheet Fig. 7a), mean of three wells” value (head suffix _10 (concentration 10), reading M70) was 3.357 and the “Th-T fluorescence of Aβ42 (sheet Fig. 7a), mean of three wells” value (head suffix _10 (concentration 10), reading M71) was 3.333. For the same molecule, the “Th-T fluorescence of Aβ42 (sheet Fig. 7a), mean of three wells” value (head suffix _10 (concentration 10), reading M72) was 3.332, the “Th-T fluorescence of Aβ42 (sheet Fig. 7a), mean of three wells” value (head suffix _10 (concentration 10), reading M73) was 3.302 and the “Th-T fluorescence of Aβ42 (sheet Fig. 7a), mean of three wells” value (head suffix _10 (concentration 10), reading M74) was 3.307. For the same molecule, the “Th-T fluorescence of Aβ42 (sheet Fig. 7a), mean of three wells” value (head suffix _10 (concentration 10), reading M75) was 3.295, the “Th-T fluorescence of Aβ42 (sheet Fig. 7a), mean of three wells” value (head suffix _10 (concentration 10), reading M76) was 3.265 and the “Th-T fluorescence of Aβ42 (sheet Fig. 7a), mean of three wells” value (head suffix _10 (concentration 10), reading M77) was 3.239. For the same molecule, the “Th-T fluorescence of Aβ42 (sheet Fig. 7a), mean of three wells” value (head suffix _10 (concentration 10), reading M78) was 3.245, the “Th-T fluorescence of Aβ42 (sheet Fig. 7a), mean of three wells” value (head suffix _10 (concentration 10), reading M79) was 3.216 and the “Th-T fluorescence of Aβ42 (sheet Fig. 7a), mean of three wells” value (head suffix _10 (concentration 10), reading M80) was 3.214. The “Th-T fluorescence of Aβ42 (sheet Fig. 7a), mean of three wells” value (head suffix _10 (concentration 10), reading M81) was 3.199, the “Th-T fluorescence of Aβ42 (sheet Fig. 7a), mean of three wells” value (head suffix _10 (concentration 10), reading M82) was 3.17 and the “Th-T fluorescence of Aβ42 (sheet Fig. 7a), mean of three wells” value (head suffix _10 (concentration 10), reading M83) was 3.151. For the same molecule, the “Th-T fluorescence of Aβ42 (sheet Fig. 7a), mean of three wells” value (head suffix _10 (concentration 10), reading M84) was 3.157, the “Th-T fluorescence of Aβ42 (sheet Fig. 7a), mean of three wells” value (head suffix _20 (concentration 20), reading M63) was 2.111 and the “Th-T fluorescence of Aβ42 (sheet Fig. 7a), mean of three wells” value (head suffix _20 (concentration 20), reading M64) was 2.103. The “Th-T fluorescence of Aβ42 (sheet Fig. 7a), mean of three wells” value (head suffix _20 (concentration 20), reading M65) was 2.121, the “Th-T fluorescence of Aβ42 (sheet Fig. 7a), mean of three wells” value (head suffix _20 (concentration 20), reading M66) was 2.113 and the “Th-T fluorescence of Aβ42 (sheet Fig. 7a), mean of three wells” value (head suffix _20 (concentration 20), reading M67) was 2.119. The “Th-T fluorescence of Aβ42 (sheet Fig. 7a), mean of three wells” value (head suffix _20 (concentration 20), reading M68) was 2.108, the “Th-T fluorescence of Aβ42 (sheet Fig. 7a), mean of three wells” value (head suffix _20 (concentration 20), reading M69) was 2.09 and the “Th-T fluorescence of Aβ42 (sheet Fig. 7a), mean of three wells” value (head suffix _20 (concentration 20), reading M70) was 2.126. The “Th-T fluorescence of Aβ42 (sheet Fig. 7a), mean of three wells” value (head suffix _20 (concentration 20), reading M71) was 2.116, the “Th-T fluorescence of Aβ42 (sheet Fig. 7a), mean of three wells” value (head suffix _20 (concentration 20), reading M72) was 2.113 and the “Th-T fluorescence of Aβ42 (sheet Fig. 7a), mean of three wells” value (head suffix _20 (concentration 20), reading M73) was 2.112. For the same molecule, the “Th-T fluorescence of Aβ42 (sheet Fig. 7a), mean of three wells” value (head suffix _20 (concentration 20), reading M74) was 2.11, the “Th-T fluorescence of Aβ42 (sheet Fig. 7a), mean of three wells” value (head suffix _20 (concentration 20), reading M75) was 2.104 and the “Th-T fluorescence of Aβ42 (sheet Fig. 7a), mean of three wells” value (head suffix _20 (concentration 20), reading M76) was 2.0857. The “Th-T fluorescence of Aβ42 (sheet Fig. 7a), mean of three wells” value (head suffix _20 (concentration 20), reading M77) was 2.081, the “Th-T fluorescence of Aβ42 (sheet Fig. 7a), mean of three wells” value (head suffix _20 (concentration 20), reading M78) was 2.114 and the “Th-T fluorescence of Aβ42 (sheet Fig. 7a), mean of three wells” value (head suffix _20 (concentration 20), reading M79) was 2.113. The “Th-T fluorescence of Aβ42 (sheet Fig. 7a), mean of three wells” value (head suffix _20 (concentration 20), reading M80) was 2.11, the “Th-T fluorescence of Aβ42 (sheet Fig. 7a), mean of three wells” value (head suffix _20 (concentration 20), reading M81) was 2.089 and the “Th-T fluorescence of Aβ42 (sheet Fig. 7a), mean of three wells” value (head suffix _20 (concentration 20), reading M82) was 2.121. The “Th-T fluorescence of Aβ42 (sheet Fig. 7a), mean of three wells” value (head suffix _20 (concentration 20), reading M83) was 2.116, the “Th-T fluorescence of Aβ42 (sheet Fig. 7a), mean of three wells” value (head suffix _20 (concentration 20), reading M84) was 2.082 and the “Th-T fluorescence of Aβ42 (sheet Fig. 7a), mean of three wells” value (head suffix _50 (concentration 50), reading M63) was 1.459. For the same molecule, the “Th-T fluorescence of Aβ42 (sheet Fig. 7a), mean of three wells” value (head suffix _50 (concentration 50), reading M64) was 1.462, the “Th-T fluorescence of Aβ42 (sheet Fig. 7a), mean of three wells” value (head suffix _50 (concentration 50), reading M65) was 1.426 and the “Th-T fluorescence of Aβ42 (sheet Fig. 7a), mean of three wells” value (head suffix _50 (concentration 50), reading M66) was 1.435. For the same molecule, the “Th-T fluorescence of Aβ42 (sheet Fig. 7a), mean of three wells” value (head suffix _50 (concentration 50), reading M67) was 1.458, the “Th-T fluorescence of Aβ42 (sheet Fig. 7a), mean of three wells” value (head suffix _50 (concentration 50), reading M68) was 1.453 and the “Th-T fluorescence of Aβ42 (sheet Fig. 7a), mean of three wells” value (head suffix _50 (concentration 50), reading M69) was 1.447. The “Th-T fluorescence of Aβ42 (sheet Fig. 7a), mean of three wells” value (head suffix _50 (concentration 50), reading M70) was 1.435, the “Th-T fluorescence of Aβ42 (sheet Fig. 7a), mean of three wells” value (head suffix _50 (concentration 50), reading M71) was 1.445 and the “Th-T fluorescence of Aβ42 (sheet Fig. 7a), mean of three wells” value (head suffix _50 (concentration 50), reading M72) was 1.442.

Source: article PMC7156458, “Synthetic biology based construction of biological activity-related library of fungal decalin-containing diterpenoid pyrones” (Nature Communications, 2020)
